According to patent US20250228239A1, “MOLECULES HAVING PESTICIDAL UTILITY, AND INTERMEDIATES, COMPOSITIONS, AND PROCESSES, RELATED THERETO” (priority 2024, published 2025):

Key:
Format in all cases: in vivo
[1] = system: Beet Armyworm (Spodoptera exigua, LAPHEG); test: Bioassays on Beet Armyworm (BAW), 128-well diet tray assay; conditions: Spodoptera exigua; Beet Armyworm, Table ABC / ABC-DP rating; read-out: BAW rating
Method in brief: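 Test molecule was dissolved in 90:10 acetone-water and applied at 50 μg/cm^2 onto artificial diet in eight wells, then dried. Second instar larvae, one to five per well, were added, and trays were kept vented at 25° C. with a 14:10 photoperiod for five to seven days before mortality was recorded.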

[2] = system: Cabbage Looper (Trichoplusia ni, TRIPNI); test: Bioassays on Cabbage Looper (CL), 128-well diet tray assay; conditions: Trichoplusia ni; Cabbage Looper, Table ABC / ABC-DP rating; read-out: CL rating
Method in brief: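 Diet tray, 2nd instar, 1–5 larvae/well; 50 μg/cm^2 compound surface-applied (acetone:water 90:10), dried; 8 wells/treatment; 25° C, 14:10 L:D, 5–7 d; % mortality, mean of 8 wells.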

[3] = system: Yellow Fever Mosquito (Aedes aegypti, AEDSAE); conditions: Yellow Fever Mosquito, Table ABC / ABC-DP rating
Method in brief: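 Mortality after 3 days at room temperature is the read-out, scored well by well and converted to a rating. Test molecules came from 4000 ppm stocks in DMSO, further diluted in 90:10 water/acetone, and were exposed to roughly 1-day-old larvae suspended in liver-powder water.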

In the case of O=C(NCCC(F)(F)F)c1c(Cl)ccc(NC(=O)[C@H]2[C@H](c3ccc(F)c(Cl)c3)C2(Cl)Cl)c1Cl (relative stereo) [F2024, trans-2,6-Dichloro-3-(2,2-dichloro-3-(3-chloro-4-fluorophenyl)cyclopropane-1-carboxamido)-N-(3,3,3-trifluoropropyl)benzamide], the pest or weed control at 50 µg/cm2 [1] was 50 to 100%, the pest or weed control at 50 µg/cm2 [2] was 50 to 100% and the YFM rating [3] was “A (80–100)”.
With O=C(NCCCCl)c1c(F)ccc(NC(=O)[C@H]2[C@H](c3ccc(F)c(Cl)c3)C2(Cl)Cl)c1F (relative stereo) [F2028, trans-N-(3-Chloropropyl)-3-(2,2-dichloro-3-(3-chloro-4-fluorophenyl)cyclopropane-1-carboxamido)-2,6-difluorobenzamide] the pest or weed control at 50 µg/cm2 [1] was 50 to 100%, the pest or weed control at 50 µg/cm2 [2] was 50 to 100% and the YFM rating [3] was “A (80–100)”.
CCNC(=O)c1cc(NC(=O)[C@H]2[C@H](c3ccc(F)c(Cl)c3)C2(Cl)Cl)cc(C)c1F (relative stereo) [F2029, trans-5-(2,2-Dichloro-3-(3-chloro-4-fluorophenyl)cyclopropane-1-carboxamido)-N-ethyl-2-fluoro-3-methylbenzamide] was tested, and the pest or weed control at 50 µg/cm2 [1] was 50 to 100%, the pest or weed control at 50 µg/cm2 [2] was 50 to 100% and the YFM rating [3] was “A (80–100)”.
Cc1cc(NC(=O)[C@H]2[C@H](c3ccc(F)c(Cl)c3)C2(Cl)Cl)cc(C(=O)NCC(F)(F)F)c1F (relative stereo) [F2030, trans-5-(2,2-Dichloro-3-(3-chloro-4-fluorophenyl)cyclopropane-1-carboxamido)-2-fluoro-3-methyl-N-(2,2,2-trifluoroethyl)benzamide] was tested, and the pest or weed control at 50 µg/cm2 [1] was 50 to 100%, the pest or weed control at 50 µg/cm2 [2] was 50 to 100% and the YFM rating [3] was “A (80–100)”.
For Cc1cc(NC(=O)[C@H]2[C@H](c3ccc(F)c(Cl)c3)C2(Cl)Cl)cc(C(=O)NCC(F)(F)C(F)(F)F)c1F (relative stereo) [F2031, trans-5-(2,2-Dichloro-3-(3-chloro-4-fluorophenyl)cyclopropane-1-carboxamido)-2-fluoro-3-methyl-N-(2,2,3,3,3-pentafluoropropyl)benzamide], the pest or weed control at 50 µg/cm2 [1] was 50 to 100%, the pest or weed control at 50 µg/cm2 [2] was 50 to 100% and the YFM rating [3] was “A (80–100)”.
Cc1cc(NC(=O)[C@H]2[C@H](c3ccc(F)c(Cl)c3)C2(Cl)Cl)cc(C(=O)NCCCCl)c1F (relative stereo) [F2032, trans-N-(3-Chloropropyl)-5-(2,2-dichloro-3-(3-chloro-4-fluorophenyl)-cyclopropane-1-carboxamido)-2-fluoro-3-methylbenzamide] was tested, and the pest or weed control at 50 µg/cm2 [1] was 50 to 100%, the pest or weed control at 50 µg/cm2 [2] was 50 to 100% and the YFM rating [3] was “A (80–100)”.
In the case of O=C(NCC(F)(F)C(F)(F)F)c1cc(NC(=O)[C@H]2[C@H](c3ccc(F)c(Cl)c3)C2(Cl)Cl)cc(F)c1Cl (relative stereo) [F2035, trans-2-Chloro-5-(2,2-dichloro-3-(3-chloro-4-fluorophenyl)cyclopropane-1-carboxamido)-3-fluoro-N-(2,2,3,3,3-pentafluoropropyl)benzamide], the pest or weed control at 50 µg/cm2 [1] was 50 to 100%, the pest or weed control at 50 µg/cm2 [2] was 50 to 100% and the YFM rating [3] was “A (80–100)”.
In the case of O=C(NCCCCl)c1cc(NC(=O)[C@H]2[C@H](c3ccc(F)c(Cl)c3)C2(Cl)Cl)cc(F)c1Cl (relative stereo) [F2036, trans-2-Chloro-N-(3-chloropropyl)-5-(2,2-dichloro-3-(3-chloro-4-fluorophenyl)cyclopropane-1-carboxamido)-3-fluorobenzamide], the pest or weed control at 50 µg/cm2 [1] was 50 to 100%, the pest or weed control at 50 µg/cm2 [2] was 50 to 100% and the YFM rating [3] was “A (80–100)”.
CCNC(=O)c1cc(NC(=O)[C@H]2[C@H](c3ccc(F)c(Cl)c3)C2(Cl)Cl)cc(C)c1Cl (relative stereo) [F2037, trans-2-Chloro-5-(2,2-dichloro-3-(3-chloro-4-fluorophenyl)cyclopropane-1-carboxamido)-N-ethyl-3-methylbenzamide] was tested, and the pest or weed control at 50 µg/cm2 [1] was 50 to 100%, the pest or weed control at 50 µg/cm2 [2] was 50 to 100% and the YFM rating [3] was “A (80–100)”.
In the case of Cc1cc(NC(=O)[C@H]2[C@H](c3ccc(F)c(Cl)c3)C2(Cl)Cl)cc(C(=O)NCC(F)(F)F)c1Cl (relative stereo) [F2038, trans-2-Chloro-5-(2,2-dichloro-3-(3-chloro-4-fluorophenyl)cyclopropane-1-carboxamido)-3-methyl-N-(2,2,2-trifluoroethyl)benzamide], the pest or weed control at 50 µg/cm2 [1] was 50 to 100%, the pest or weed control at 50 µg/cm2 [2] was 50 to 100% and the YFM rating [3] was “A (80–100)”.
For Cc1c(Cl)cc(NC(=O)[C@H]2[C@H](c3ccc(F)c(Cl)c3)C2(Cl)Cl)cc1C(=O)NCC(F)(F)C(F)(F)F (relative stereo) [F2043, trans-3-Chloro-5-(2,2-dichloro-3-(3-chloro-4-fluorophenyl)cyclopropane-1-carboxamido)-2-methyl-N-(2,2,3,3,3-pentafluoropropyl)benzamide], the pest or weed control at 50 µg/cm2 [1] was 50 to 100%, the pest or weed control at 50 µg/cm2 [2] was 50 to 100% and the YFM rating [3] was “A (80–100)”.
In the case of Cc1c(Cl)cc(NC(=O)[C@H]2[C@H](c3ccc(F)c(Cl)c3)C2(Cl)Cl)cc1C(=O)NCCCCl (relative stereo) [F2044, trans-3-Chloro-N-(3-chloropropyl)-5-(2,2-dichloro-3-(3-chloro-4-fluorophenyl)cyclopropane-1-carboxamido)-2-methylbenzamide], the pest or weed control at 50 µg/cm2 [1] was 50 to 100%, the pest or weed control at 50 µg/cm2 [2] was 50 to 100% and the YFM rating [3] was “A (80–100)”.
For O=C(NCC(F)(F)F)c1cc(NC(=O)[C@H]2[C@H](c3ccc(F)c(Cl)c3)C2(Cl)Cl)cc(C(F)(F)F)c1Cl (relative stereo) [F2054, trans-2-Chloro-5-(2,2-dichloro-3-(3-chloro-4-fluorophenyl)cyclopropane-1-carboxamido)-N-(2,2,2-trifluoroethyl)-3-(trifluoromethyl)benzamide], the pest or weed control at 50 µg/cm2 [1] was 50 to 100%, the pest or weed control at 50 µg/cm2 [2] was 50 to 100% and the YFM rating [3] was “A (80–100)”.
O=C(NCCC(F)(F)F)c1cc(NC(=O)[C@H]2[C@H](c3ccc(F)c(Cl)c3)C2(Cl)Cl)cc(C(F)(F)F)c1Cl (relative stereo) [F2055, trans-2-Chloro-5-(2,2-dichloro-3-(3-chloro-4-fluorophenyl)cyclopropane-1-carboxamido)-3-(trifluoromethyl)-N-(3,3,3-trifluoropropyl)benzamide] was tested, and the pest or weed control at 50 µg/cm2 [1] was 50 to 100%, the pest or weed control at 50 µg/cm2 [2] was 50 to 100% and the YFM rating [3] was “A (80–100)”.
For O=C(NCC(F)(F)C(F)(F)F)c1cc(NC(=O)[C@H]2[C@H](c3ccc(F)c(Cl)c3)C2(Cl)Cl)cc(C(F)(F)F)c1Cl (relative stereo) [F2056, trans-2-Chloro-5-(2,2-dichloro-3-(3-chloro-4-fluorophenyl)cyclopropane-1-carboxamido)-N-(2,2,3,3,3-pentafluoropropyl)-3-(trifluoromethyl)benzamide], the pest or weed control at 50 µg/cm2 [1] was 50 to 100%, the pest or weed control at 50 µg/cm2 [2] was 50 to 100% and the YFM rating [3] was “A (80–100)”.
COc1c(F)cc(NC(=O)[C@H]2[C@H](c3ccc(F)c(Cl)c3)C2(Cl)Cl)cc1C(=O)NCC(F)(F)F (relative stereo) [F2058, trans-5-(2,2-Dichloro-3-(3-chloro-4-fluorophenyl)cyclopropane-1-carboxamido)-3-fluoro-2-methoxy-N-(2,2,2-trifluoroethyl)benzamide] was tested, and the pest or weed control at 50 µg/cm2 [1] was 50 to 100%, the pest or weed control at 50 µg/cm2 [2] was 50 to 100% and the YFM rating [3] was “A (80–100)”.
COc1c(F)cc(NC(=O)[C@H]2[C@H](c3ccc(F)c(Cl)c3)C2(Cl)Cl)cc1C(=O)NCCC(F)(F)F (relative stereo) [F2059, trans-5-(2,2-Dichloro-3-(3-chloro-4-fluorophenyl)cyclopropane-1-carboxamido)-3-fluoro-2-methoxy-N-(3,3,3-trifluoropropyl)benzamide] was tested, and the pest or weed control at 50 µg/cm2 [1] was 50 to 100%, the pest or weed control at 50 µg/cm2 [2] was 50 to 100% and the YFM rating [3] was “A (80–100)”.
With COc1c(F)cc(NC(=O)[C@H]2[C@H](c3ccc(F)c(Cl)c3)C2(Cl)Cl)cc1C(=O)NCC(F)(F)C(F)(F)F (relative stereo) [F2060, trans-5-(2,2-Dichloro-3-(3-chloro-4-fluorophenyl)cyclopropane-1-carboxamido)-3-fluoro-2-methoxy-N-(2,2,3,3,3-pentafluoropropyl)benzamide] the pest or weed control at 50 µg/cm2 [1] was 50 to 100%, the pest or weed control at 50 µg/cm2 [2] was 50 to 100% and the YFM rating [3] was “A (80–100)”.
In the case of Cc1c(F)cc(NC(=O)[C@H]2[C@H](c3ccc(F)c(Cl)c3)C2(Cl)Cl)cc1C(=O)NCC(F)(F)F (relative stereo) [F2063, trans-5-(2,2-Dichloro-3-(3-chloro-4-fluorophenyl)cyclopropane-1-carboxamido)-3-fluoro-2-methyl-N-(2,2,2-trifluoroethyl)benzamide], the pest or weed control at 50 µg/cm2 [1] was 50 to 100%, the pest or weed control at 50 µg/cm2 [2] was 50 to 100% and the YFM rating [3] was “A (80–100)”.
With Cc1c(F)cc(NC(=O)[C@H]2[C@H](c3ccc(F)c(Cl)c3)C2(Cl)Cl)cc1C(=O)NCC(F)(F)C(F)(F)F (relative stereo) [F2064, trans-5-(2,2-Dichloro-3-(3-chloro-4-fluorophenyl)cyclopropane-1-carboxamido)-3-fluoro-2-methyl-N-(2,2,3,3,3-pentafluoropropyl)benzamide] the pest or weed control at 50 µg/cm2 [1] was 50 to 100%, the pest or weed control at 50 µg/cm2 [2] was 50 to 100% and the YFM rating [3] was “A (80–100)”.
